Test results from PubChem BioAssay (NCI).
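Test compounds were applied to cells in 96-well plates for 48 hours at 5 doses. TGI marks complete inhibition of growth.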

Tested on: A498 renal
Test: growth of human tumour cells (NCI), 48 h

SMILES	TGI
C[C@]12CC[C@H](OC3CCCCO3)CC1=CC[C@@H]1C2CC[C@]2(C)/C(=N/OCCC#N)CCC12 (some centres not stated)	> 100 µM
CC(C)OC(=O)c1cc(NC(=O)C(C)(C)C)c(F)cc1Cl	> 100 µM
COCOCCCCCO[Si](C)(C)C(C)(C)C	77.8 µM

Tested on: OVCAR-3 ovarian
Test: growth of human tumour cells (NCI), 48 h

SMILES	TGI
C[C@]12CC[C@H](OC3CCCCO3)CC1=CC[C@@H]1C2CC[C@]2(C)/C(=N/OCCC#N)CCC12 (some centres not stated)	> 100 µM
NC(N)=NNC(=O)CCn1[nH]c(=O)c(Cl)c(Cl)c1=O	> 100 µM
CC(C)OC(=O)c1cc(NC(=O)C(C)(C)C)c(F)cc1Cl	> 100 µM
COCOCCCCCO[Si](C)(C)C(C)(C)C	27.6 µM
COC(=O)C1=C(C(=O)OC)C2(C3C(SC)=CC(C)(C)CC3S1)N(Cc1ccccc1)CCN2Cc1ccccc1 (configuration not stated)	> 100 µM

Tested on: M14 melanoma
Test: growth of human tumour cells (NCI), 48 h

SMILES	TGI
C[C@]12CC[C@H](OC3CCCCO3)CC1=CC[C@@H]1C2CC[C@]2(C)/C(=N/OCCC#N)CCC12 (some centres not stated)	> 100 µM
NC(N)=NNC(=O)CCn1[nH]c(=O)c(Cl)c(Cl)c1=O	> 100 µM
CC(C)OC(=O)c1cc(NC(=O)C(C)(C)C)c(F)cc1Cl	> 100 µM
COCOCCCCCO[Si](C)(C)C(C)(C)C	48.7 µM
COC(=O)C1=C(C(=O)OC)C2(C3C(SC)=CC(C)(C)CC3S1)N(Cc1ccccc1)CCN2Cc1ccccc1 (configuration not stated)	> 100 µM

Tested on: NCI-H522 lung
Test: growth of human tumour cells (NCI), 48 h

SMILES	TGI
C[C@]12CC[C@H](OC3CCCCO3)CC1=CC[C@@H]1C2CC[C@]2(C)/C(=N/OCCC#N)CCC12 (some centres not stated)	> 100 µM
NC(N)=NNC(=O)CCn1[nH]c(=O)c(Cl)c(Cl)c1=O	> 100 µM
CC(C)OC(=O)c1cc(NC(=O)C(C)(C)C)c(F)cc1Cl	> 100 µM
COCOCCCCCO[Si](C)(C)C(C)(C)C	28.6 µM
COC(=O)C1=C(C(=O)OC)C2(C3C(SC)=CC(C)(C)CC3S1)N(Cc1ccccc1)CCN2Cc1ccccc1 (configuration not stated)	> 100 µM

Tested on: HCT-15 colon
Test: growth of human tumour cells (NCI), 48 h

SMILES	TGI
C[C@]12CC[C@H](OC3CCCCO3)CC1=CC[C@@H]1C2CC[C@]2(C)/C(=N/OCCC#N)CCC12 (some centres not stated)	> 100 µM
NC(N)=NNC(=O)CCn1[nH]c(=O)c(Cl)c(Cl)c1=O	> 100 µM
CC(C)OC(=O)c1cc(NC(=O)C(C)(C)C)c(F)cc1Cl	> 100 µM
COCOCCCCCO[Si](C)(C)C(C)(C)C	32.1 µM
COC(=O)C1=C(C(=O)OC)C2(C3C(SC)=CC(C)(C)CC3S1)N(Cc1ccccc1)CCN2Cc1ccccc1 (configuration not stated)	> 100 µM

Tested on: SNB-78 CNS
Test: growth of human tumour cells (NCI), 48 h

SMILES	TGI
C[C@]12CC[C@H](OC3CCCCO3)CC1=CC[C@@H]1C2CC[C@]2(C)/C(=N/OCCC#N)CCC12 (some centres not stated)	72.1 µM
COCOCCCCCO[Si](C)(C)C(C)(C)C	48.3 µM
COC(=O)C1=C(C(=O)OC)C2(C3C(SC)=CC(C)(C)CC3S1)N(Cc1ccccc1)CCN2Cc1ccccc1 (configuration not stated)	> 100 µM

Tested on: LOX IMVI melanoma
Test: growth of human tumour cells (NCI), 48 h

SMILES	TGI
C[C@]12CC[C@H](OC3CCCCO3)CC1=CC[C@@H]1C2CC[C@]2(C)/C(=N/OCCC#N)CCC12 (some centres not stated)	> 100 µM
NC(N)=NNC(=O)CCn1[nH]c(=O)c(Cl)c(Cl)c1=O	> 100 µM
CC(C)OC(=O)c1cc(NC(=O)C(C)(C)C)c(F)cc1Cl	> 100 µM
COCOCCCCCO[Si](C)(C)C(C)(C)C	31.2 µM
COC(=O)C1=C(C(=O)OC)C2(C3C(SC)=CC(C)(C)CC3S1)N(Cc1ccccc1)CCN2Cc1ccccc1 (configuration not stated)	> 100 µM

Tested on: HT29 colon
Test: growth of human tumour cells (NCI), 48 h

SMILES	TGI
NC(N)=NNC(=O)CCn1[nH]c(=O)c(Cl)c(Cl)c1=O	> 100 µM
CC(C)OC(=O)c1cc(NC(=O)C(C)(C)C)c(F)cc1Cl	> 100 µM
COCOCCCCCO[Si](C)(C)C(C)(C)C	30.8 µM
COC(=O)C1=C(C(=O)OC)C2(C3C(SC)=CC(C)(C)CC3S1)N(Cc1ccccc1)CCN2Cc1ccccc1 (configuration not stated)	> 100 µM

Tested on: SK-MEL-2 melanoma
Test: growth of human tumour cells (NCI), 48 h

SMILES	TGI
C[C@]12CC[C@H](OC3CCCCO3)CC1=CC[C@@H]1C2CC[C@]2(C)/C(=N/OCCC#N)CCC12 (some centres not stated)	> 100 µM
NC(N)=NNC(=O)CCn1[nH]c(=O)c(Cl)c(Cl)c1=O	> 100 µM
CC(C)OC(=O)c1cc(NC(=O)C(C)(C)C)c(F)cc1Cl	> 100 µM
COCOCCCCCO[Si](C)(C)C(C)(C)C	31 µM
COC(=O)C1=C(C(=O)OC)C2(C3C(SC)=CC(C)(C)CC3S1)N(Cc1ccccc1)CCN2Cc1ccccc1 (configuration not stated)	> 100 µM

Tested on: COLO 205 colon
Test: growth of human tumour cells (NCI), 48 h

SMILES	TGI
NC(N)=NNC(=O)CCn1[nH]c(=O)c(Cl)c(Cl)c1=O	> 100 µM
CC(C)OC(=O)c1cc(NC(=O)C(C)(C)C)c(F)cc1Cl	> 100 µM
COCOCCCCCO[Si](C)(C)C(C)(C)C	38.5 µM
COC(=O)C1=C(C(=O)OC)C2(C3C(SC)=CC(C)(C)CC3S1)N(Cc1ccccc1)CCN2Cc1ccccc1 (configuration not stated)	> 100 µM

Tested on: UACC-257 melanoma
Test: growth of human tumour cells (NCI), 48 h

SMILES	TGI
C[C@]12CC[C@H](OC3CCCCO3)CC1=CC[C@@H]1C2CC[C@]2(C)/C(=N/OCCC#N)CCC12 (some centres not stated)	> 100 µM
NC(N)=NNC(=O)CCn1[nH]c(=O)c(Cl)c(Cl)c1=O	> 100 µM
CC(C)OC(=O)c1cc(NC(=O)C(C)(C)C)c(F)cc1Cl	> 100 µM
COCOCCCCCO[Si](C)(C)C(C)(C)C	40.2 µM
COC(=O)C1=C(C(=O)OC)C2(C3C(SC)=CC(C)(C)CC3S1)N(Cc1ccccc1)CCN2Cc1ccccc1 (configuration not stated)	> 100 µM

Tested on: U251 CNS
Test: growth of human tumour cells (NCI), 48 h

SMILES	TGI
C[C@]12CC[C@H](OC3CCCCO3)CC1=CC[C@@H]1C2CC[C@]2(C)/C(=N/OCCC#N)CCC12 (some centres not stated)	> 100 µM
NC(N)=NNC(=O)CCn1[nH]c(=O)c(Cl)c(Cl)c1=O	> 100 µM
CC(C)OC(=O)c1cc(NC(=O)C(C)(C)C)c(F)cc1Cl	> 100 µM
COCOCCCCCO[Si](C)(C)C(C)(C)C	29.4 µM
COC(=O)C1=C(C(=O)OC)C2(C3C(SC)=CC(C)(C)CC3S1)N(Cc1ccccc1)CCN2Cc1ccccc1 (configuration not stated)	> 100 µM

Tested on: SNB-75 CNS
Test: growth of human tumour cells (NCI), 48 h

SMILES	TGI
C[C@]12CC[C@H](OC3CCCCO3)CC1=CC[C@@H]1C2CC[C@]2(C)/C(=N/OCCC#N)CCC12 (some centres not stated)	58.4 µM
NC(N)=NNC(=O)CCn1[nH]c(=O)c(Cl)c(Cl)c1=O	> 100 µM
CC(C)OC(=O)c1cc(NC(=O)C(C)(C)C)c(F)cc1Cl	> 100 µM
COCOCCCCCO[Si](C)(C)C(C)(C)C	83.8 µM
COC(=O)C1=C(C(=O)OC)C2(C3C(SC)=CC(C)(C)CC3S1)N(Cc1ccccc1)CCN2Cc1ccccc1 (configuration not stated)	> 100 µM

Tested on: HCT-116 colon
Test: growth of human tumour cells (NCI), 48 h

SMILES	TGI
C[C@]12CC[C@H](OC3CCCCO3)CC1=CC[C@@H]1C2CC[C@]2(C)/C(=N/OCCC#N)CCC12 (some centres not stated)	> 100 µM
CC(C)OC(=O)c1cc(NC(=O)C(C)(C)C)c(F)cc1Cl	> 100 µM
COCOCCCCCO[Si](C)(C)C(C)(C)C	26.4 µM
COC(=O)C1=C(C(=O)OC)C2(C3C(SC)=CC(C)(C)CC3S1)N(Cc1ccccc1)CCN2Cc1ccccc1 (configuration not stated)	> 100 µM

Tested on: OVCAR-4 ovarian
Test: growth of human tumour cells (NCI), 48 h

SMILES	TGI
C[C@]12CC[C@H](OC3CCCCO3)CC1=CC[C@@H]1C2CC[C@]2(C)/C(=N/OCCC#N)CCC12 (some centres not stated)	66.5 µM
NC(N)=NNC(=O)CCn1[nH]c(=O)c(Cl)c(Cl)c1=O	> 100 µM
CC(C)OC(=O)c1cc(NC(=O)C(C)(C)C)c(F)cc1Cl	> 100 µM
COC(=O)C1=C(C(=O)OC)C2(C3C(SC)=CC(C)(C)CC3S1)N(Cc1ccccc1)CCN2Cc1ccccc1 (configuration not stated)	> 100 µM
